The results in this text go back to ChEMBL document CHEMBL1201862, “PubChem BioAssay data set” (2004).

Assay type in all cases: functional
In experiment [1] the target is Serine/threonine-protein kinase pim-1 (Homo sapiens, UniProt P11309).
In experiment [2] the target is cAMP-dependent protein kinase catalytic subunit PRKX (Homo sapiens, UniProt P51817).
The target in experiment [3] is Dual specificity protein kinase CLK4 (Homo sapiens, UniProt Q9HAZ1).
For the next experiment, the target named is LIM domain kinase 1 (Homo sapiens, UniProt P53667). The experiment in a line: Navigating the Kinome. Panel member name: LIMK1.
Experiment [4] has as its target Dual specificity mitogen-activated protein kinase kinase 2 (Homo sapiens, UniProt P36507). The experiment in a line: Navigating the Kinome. Panel member name: MAP2K2.
In experiment [5] the target is Mitogen-activated protein kinase 8 (Homo sapiens, UniProt P45983).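 Also: value comes from one member of a kinome-wide kinase profiling panel.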
Experiment [6] concerns the target Cyclin-dependent kinase 7 (Homo sapiens, UniProt P50613).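 Also: value comes from a kinome-wide kinase profiling panel in which CDK7 is one member.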
In experiment [7] the target is Cyclin-dependent kinase 5 (Homo sapiens, UniProt Q00535).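 Also: CDK5 measured as one member of a kinase profiling panel.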
For experiment [8], the target named is Inhibitor of nuclear factor kappa-B kinase subunit epsilon (Homo sapiens, UniProt Q14164). The experiment is described as follows: Navigating the Kinome. Panel member name: IKBKE.
Experiment [9] deals with Receptor-type tyrosine-protein kinase FLT3 (Homo sapiens, UniProt P36888).
Experiment [10] addresses Mitogen-activated protein kinase 9 (Homo sapiens, UniProt P45984).
For experiment [11], the target named is Mitogen-activated protein kinase kinase kinase kinase 2 (Homo sapiens, UniProt Q12851).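 Also: measured as one member of a kinome-wide kinase panel, with MAP4K2 as the panel entry.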
In experiment [12] the target is Calcium/calmodulin-dependent protein kinase type II subunit alpha (Homo sapiens, UniProt Q9UQM7). The experiment in a line: Navigating the Kinome. Panel member name: CAMK2A.
The target of experiment [13] is Tyrosine-protein kinase JAK3 (Homo sapiens, UniProt P52333).
Experiment [14] addresses Hepatocyte growth factor receptor (Homo sapiens, UniProt P08581).
In another experiment the target is Activated CDC42 kinase 1 (Homo sapiens, UniProt Q07912). The experiment is described as follows: Navigating the Kinome. Panel member name: ACK1.
Experiment [15] deals with Tyrosine-protein kinase Fyn (Homo sapiens, UniProt P06241).
Experiment [16] deals with Proto-oncogene tyrosine-protein kinase receptor Ret (Homo sapiens, UniProt P07949).
The target of experiment [17] is 5'-AMP-activated protein kinase catalytic subunit alpha-1 (Homo sapiens, UniProt Q13131).
Experiment [18] has as its target G protein-coupled receptor kinase 5 (Homo sapiens, UniProt P34947). The experiment in a line: Navigating the Kinome. Panel member name: GPRK5.
Experiment [19] deals with Serine/threonine-protein kinase Nek2 (Homo sapiens, UniProt P51955).
The target of experiment [20] is Glycogen synthase kinase-3 beta (Homo sapiens, UniProt P49841).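 Also: value comes from a broad kinome profiling panel, with GSK3B as the panel member.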
The target in experiment [21] is Dual specificity mitogen-activated protein kinase kinase 1 (Homo sapiens, UniProt Q02750). The experiment in a line: Navigating the Kinome. Panel member name: MAP2K1.
Experiment [22] concerns the target Vascular endothelial growth factor receptor 1 (Homo sapiens, UniProt P17948).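 Also: measured within a kinome-wide profiling panel, FLT1 as the panel member.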
Experiment [23] deals with Mitogen-activated protein kinase kinase kinase kinase 4 (Homo sapiens, UniProt O95819).
The target in experiment [24] is Leukocyte tyrosine kinase receptor (Homo sapiens, UniProt P29376). The experiment is described as follows: Navigating the Kinome. Panel member name: LTK.
In experiment [25] the target is Fibroblast growth factor receptor 1 (Homo sapiens, UniProt P11362).
Experiment [26] concerns the target Serine/threonine-protein kinase TBK1 (Homo sapiens, UniProt Q9UHD2). The experiment is described as follows: Navigating the Kinome. Panel member name: TBK1.
Experiment [27] concerns the target Serine/threonine-protein kinase D3 (Homo sapiens, UniProt O94806).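 Also: determined within a kinase panel screen, with PRKCN as the panel member.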
In experiment [28] the target is ALK tyrosine kinase receptor (Homo sapiens, UniProt Q9UM73).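 Also: ALK tested as one member of a kinase panel screen.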
The target of another experiment is Activin receptor type-1 (Homo sapiens, UniProt Q04771). The experiment is described as follows: Navigating the Kinome. Panel member name: ACVR1.
Experiment [29] has as its target Tyrosine-protein kinase JAK2 (Homo sapiens, UniProt O60674).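 Also: JAK2 tested as one member of a kinase panel.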
Experiment [30] has as its target cAMP-dependent protein kinase catalytic subunit alpha (Homo sapiens, UniProt P17612).
In experiment [31] the target is Tyrosine-protein kinase ABL1 (Homo sapiens, UniProt P00519).
The target of experiment [32] is Insulin-like growth factor 1 receptor (Homo sapiens, UniProt P08069). The experiment in a line: Navigating the Kinome. Panel member name: IGF1R.
Experiment [33] addresses Ribosomal protein S6 kinase alpha-3 (Homo sapiens, UniProt P51812).
Experiment [34] has as its target Vascular endothelial growth factor receptor 2 (Homo sapiens, UniProt P35968).
In experiment [35] the target is Platelet-derived growth factor receptor alpha (Homo sapiens, UniProt P16234). The experiment in a line: Navigating the Kinome. Panel member name: PDGFRA.
In experiment [36] the target is Dual specificity protein kinase CLK2 (Homo sapiens, UniProt P49760).
The target of experiment [37] is Serine/threonine-protein kinase Chk1 (Homo sapiens, UniProt O14757).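 Also: measured as one member of a kinome-wide kinase profiling panel.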
For experiment [38], the target named is Macrophage-stimulating protein receptor (Homo sapiens, UniProt Q04912). The experiment in a line: Navigating the Kinome. Panel member name: MST1R.
Experiment [39] has as its target Macrophage colony-stimulating factor 1 receptor (Homo sapiens, UniProt P07333).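 Also: value comes from the Navigating the Kinome screening panel, CSF1R member.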
In experiment [40] the target is Mitogen-activated protein kinase 14 (Homo sapiens, UniProt Q16539).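 Also: part of a kinome-wide panel, MAPK14 entry.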
The target of another experiment is Aurora kinase B (Homo sapiens, UniProt Q96GD4).
Experiment [41] has as its target Protein kinase C theta type (Homo sapiens, UniProt Q04759). The experiment is described as follows: Navigating the Kinome. Panel member name: PRKCQ.
The target of experiment [42] is Dual specificity tyrosine-phosphorylation-regulated kinase 1A (Homo sapiens, UniProt Q13627).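 Also: measured against DYRK1A as one member of a broad kinome profiling panel.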
Experiment [43] addresses BDNF/NT-3 growth factors receptor (Homo sapiens, UniProt Q16620).
Experiment [44] concerns the target Leucine-rich repeat serine/threonine-protein kinase 2 (Homo sapiens, UniProt Q5S007).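 Also: value from a broad kinome-wide panel profiling study in which LRRK2 was one of the kinases tested.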
Experiment [45] concerns the target Casein kinase I isoform alpha (Homo sapiens, UniProt P48729).
The target of experiment [46] is Glycogen synthase kinase-3 alpha (Homo sapiens, UniProt P49840).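 Also: GSK3A result taken from a broad kinome-wide kinase panel.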
Experiment [47] addresses Death-associated protein kinase 3 (Homo sapiens, UniProt O43293).
The target of experiment [48] is Cyclin-dependent kinase 8 (Homo sapiens, UniProt P49336). The experiment in a line: Navigating the Kinome. Panel member name: CDK8.
For experiment [49], the target named is Serine/threonine-protein kinase PAK 4 (Homo sapiens, UniProt O96013).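 Also: value obtained within a kinome profiling panel in which PAK4 was one of the panel members.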
The target of experiment [50] is Dual specificity tyrosine-phosphorylation-regulated kinase 1B (Homo sapiens, UniProt Q9Y463). The experiment in a line: Navigating the Kinome. Panel member name: DYRK1B.
Experiment [51] addresses Cyclin-dependent kinase 9 (Homo sapiens, UniProt P50750).
The target in a further experiment is Aurora kinase A (Homo sapiens, UniProt O14965).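 Also: value from the Navigating the Kinome kinase panel profiling, panel entry STK6.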
In experiment [52] the target is Rho-associated protein kinase 1 (Homo sapiens, UniProt Q13464).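 Also: measured within a broad kinome-wide panel profiling many kinases.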
The target of experiment [53] is Tyrosine-protein kinase receptor TYRO3 (Homo sapiens, UniProt Q06418).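 Also: TYRO3 value obtained as one member of a kinome-wide profiling panel.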
The target of experiment [54] is Serine/threonine-protein kinase TAO1 (Homo sapiens, UniProt Q7L7X3).
Experiment [55] has as its target Melanin-concentrating hormone receptor 1 (Homo sapiens, UniProt Q99705). The experiment in a line: Late-stage fluorescence-based counterscreen for antagonists of the G-protein coupled receptor 7 (GPR7): cell-based dose response assay to identify antagonists of the melanin-concentrating hormone receptor 1 (MCHR1) Set 5.
For experiment [56], the target named is T1, Neuropeptides B/W receptor type 1 (Homo sapiens, UniProt P48145).
T1 sequence (P48145 whole entry): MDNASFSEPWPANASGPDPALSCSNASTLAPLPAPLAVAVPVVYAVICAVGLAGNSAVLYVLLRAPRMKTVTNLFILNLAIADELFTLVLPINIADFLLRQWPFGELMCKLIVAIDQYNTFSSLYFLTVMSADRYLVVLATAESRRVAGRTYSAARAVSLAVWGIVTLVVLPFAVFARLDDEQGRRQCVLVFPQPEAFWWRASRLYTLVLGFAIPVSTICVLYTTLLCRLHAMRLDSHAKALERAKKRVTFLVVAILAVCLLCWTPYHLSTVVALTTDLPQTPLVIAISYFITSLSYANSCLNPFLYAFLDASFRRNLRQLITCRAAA
The experiment in a line: human NPBW1 receptor blockade, IC50 – cell-based, fluorescence, dose response, set 5, late-stage follow-up (AID 588566).

Experiment [57] addresses Multidrug resistance protein CDR2 (Candida albicans (strain SC5314 / ATCC MYA-2876) (Yeast), UniProt P78595). The experiment in a line: inhibition of Nile Red efflux via Candida CDR2 – S. cerevisiae AD1-8u, singleplex, Cherry Pick1 hits, dose response (AID 588604).

Molecules are shown by their SMILES. Activity calls are given as the source filed them. Where only a bound is given, the exact number is not on record here.

Sequence of Receptor-type tyrosine-protein kinase FLT3 (P36888 whole entry): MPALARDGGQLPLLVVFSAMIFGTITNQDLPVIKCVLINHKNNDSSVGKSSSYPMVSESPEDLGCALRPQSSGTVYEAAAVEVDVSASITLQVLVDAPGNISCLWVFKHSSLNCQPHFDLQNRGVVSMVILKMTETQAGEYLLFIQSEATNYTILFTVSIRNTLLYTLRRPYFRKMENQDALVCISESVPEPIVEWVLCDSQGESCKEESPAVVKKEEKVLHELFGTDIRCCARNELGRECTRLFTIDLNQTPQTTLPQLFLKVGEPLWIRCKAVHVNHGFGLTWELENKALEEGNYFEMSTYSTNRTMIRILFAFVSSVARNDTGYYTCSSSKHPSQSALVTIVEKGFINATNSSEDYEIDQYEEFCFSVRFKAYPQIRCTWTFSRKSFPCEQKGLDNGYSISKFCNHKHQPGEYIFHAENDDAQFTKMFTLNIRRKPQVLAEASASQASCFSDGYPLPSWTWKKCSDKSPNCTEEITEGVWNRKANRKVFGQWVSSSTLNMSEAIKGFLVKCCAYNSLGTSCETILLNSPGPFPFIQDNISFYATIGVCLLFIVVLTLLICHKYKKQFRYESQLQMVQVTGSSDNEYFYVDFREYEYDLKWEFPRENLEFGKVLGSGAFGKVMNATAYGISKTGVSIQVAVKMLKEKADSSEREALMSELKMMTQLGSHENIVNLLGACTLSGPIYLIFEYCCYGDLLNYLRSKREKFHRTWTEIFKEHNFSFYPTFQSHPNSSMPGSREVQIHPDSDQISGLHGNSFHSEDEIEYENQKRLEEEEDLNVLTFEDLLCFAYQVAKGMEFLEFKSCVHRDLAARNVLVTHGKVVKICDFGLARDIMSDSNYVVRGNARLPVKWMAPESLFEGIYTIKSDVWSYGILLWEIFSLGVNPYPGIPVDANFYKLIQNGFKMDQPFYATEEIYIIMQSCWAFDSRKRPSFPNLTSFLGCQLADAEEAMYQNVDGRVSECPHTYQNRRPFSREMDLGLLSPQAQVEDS
Sequence of Activated CDC42 kinase 1 (Q07912 whole entry): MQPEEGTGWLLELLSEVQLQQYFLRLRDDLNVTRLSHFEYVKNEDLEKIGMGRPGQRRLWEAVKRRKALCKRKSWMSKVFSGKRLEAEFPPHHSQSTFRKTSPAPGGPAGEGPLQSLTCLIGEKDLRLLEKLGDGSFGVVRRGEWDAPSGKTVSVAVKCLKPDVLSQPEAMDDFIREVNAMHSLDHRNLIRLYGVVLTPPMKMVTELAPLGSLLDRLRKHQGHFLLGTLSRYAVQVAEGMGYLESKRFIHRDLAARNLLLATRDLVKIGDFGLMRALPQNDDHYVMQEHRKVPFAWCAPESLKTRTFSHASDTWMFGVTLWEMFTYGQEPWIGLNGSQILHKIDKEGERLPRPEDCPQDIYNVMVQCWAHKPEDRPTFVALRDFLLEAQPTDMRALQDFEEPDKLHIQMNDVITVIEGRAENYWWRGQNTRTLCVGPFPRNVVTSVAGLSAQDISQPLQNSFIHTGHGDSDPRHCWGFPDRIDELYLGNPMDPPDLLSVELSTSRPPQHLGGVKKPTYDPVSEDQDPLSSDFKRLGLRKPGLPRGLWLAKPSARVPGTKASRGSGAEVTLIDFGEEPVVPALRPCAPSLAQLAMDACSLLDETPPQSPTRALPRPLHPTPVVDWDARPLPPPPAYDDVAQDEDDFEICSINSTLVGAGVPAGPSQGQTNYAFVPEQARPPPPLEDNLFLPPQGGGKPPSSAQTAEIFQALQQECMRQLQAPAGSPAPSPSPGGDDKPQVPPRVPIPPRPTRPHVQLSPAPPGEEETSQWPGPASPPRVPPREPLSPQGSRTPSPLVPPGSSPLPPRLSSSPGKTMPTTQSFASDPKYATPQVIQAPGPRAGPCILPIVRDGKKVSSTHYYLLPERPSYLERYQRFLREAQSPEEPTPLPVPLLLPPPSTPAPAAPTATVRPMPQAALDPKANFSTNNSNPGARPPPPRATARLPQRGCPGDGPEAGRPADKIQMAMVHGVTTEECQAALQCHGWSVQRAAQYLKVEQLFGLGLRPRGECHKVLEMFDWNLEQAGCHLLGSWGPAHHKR
Sequence of Serine/threonine-protein kinase PAK 4 (O96013 whole entry): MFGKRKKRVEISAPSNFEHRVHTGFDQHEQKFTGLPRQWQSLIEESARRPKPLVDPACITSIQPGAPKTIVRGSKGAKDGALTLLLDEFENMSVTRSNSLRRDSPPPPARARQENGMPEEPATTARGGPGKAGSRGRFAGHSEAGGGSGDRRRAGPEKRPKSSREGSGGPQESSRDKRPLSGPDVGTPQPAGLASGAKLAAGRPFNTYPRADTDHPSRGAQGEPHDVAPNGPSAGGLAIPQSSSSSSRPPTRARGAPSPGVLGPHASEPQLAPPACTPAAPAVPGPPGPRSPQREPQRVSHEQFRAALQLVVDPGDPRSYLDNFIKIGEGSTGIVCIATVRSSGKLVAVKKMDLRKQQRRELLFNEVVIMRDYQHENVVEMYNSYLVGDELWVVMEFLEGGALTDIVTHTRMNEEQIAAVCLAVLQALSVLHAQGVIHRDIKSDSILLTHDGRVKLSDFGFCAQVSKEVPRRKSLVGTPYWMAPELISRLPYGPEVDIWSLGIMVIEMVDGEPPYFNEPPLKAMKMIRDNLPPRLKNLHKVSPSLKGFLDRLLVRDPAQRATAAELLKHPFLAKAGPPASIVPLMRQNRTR
Sequence of Glycogen synthase kinase-3 alpha (P49840 whole entry): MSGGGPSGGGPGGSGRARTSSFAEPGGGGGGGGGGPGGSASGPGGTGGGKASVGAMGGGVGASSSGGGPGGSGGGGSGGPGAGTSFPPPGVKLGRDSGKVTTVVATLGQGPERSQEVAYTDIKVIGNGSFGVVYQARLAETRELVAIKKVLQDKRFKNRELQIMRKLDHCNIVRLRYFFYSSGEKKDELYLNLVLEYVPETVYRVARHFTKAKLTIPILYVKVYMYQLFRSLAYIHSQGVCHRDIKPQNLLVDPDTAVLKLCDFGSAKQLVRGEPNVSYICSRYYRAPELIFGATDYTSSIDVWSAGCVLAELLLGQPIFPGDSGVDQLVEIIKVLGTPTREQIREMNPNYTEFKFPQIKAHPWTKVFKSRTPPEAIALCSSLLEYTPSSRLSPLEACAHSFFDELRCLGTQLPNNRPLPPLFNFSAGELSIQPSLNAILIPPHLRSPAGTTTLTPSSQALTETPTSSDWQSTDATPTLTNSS
Sequence of 5'-AMP-activated protein kinase catalytic subunit alpha-1 (Q13131 whole entry): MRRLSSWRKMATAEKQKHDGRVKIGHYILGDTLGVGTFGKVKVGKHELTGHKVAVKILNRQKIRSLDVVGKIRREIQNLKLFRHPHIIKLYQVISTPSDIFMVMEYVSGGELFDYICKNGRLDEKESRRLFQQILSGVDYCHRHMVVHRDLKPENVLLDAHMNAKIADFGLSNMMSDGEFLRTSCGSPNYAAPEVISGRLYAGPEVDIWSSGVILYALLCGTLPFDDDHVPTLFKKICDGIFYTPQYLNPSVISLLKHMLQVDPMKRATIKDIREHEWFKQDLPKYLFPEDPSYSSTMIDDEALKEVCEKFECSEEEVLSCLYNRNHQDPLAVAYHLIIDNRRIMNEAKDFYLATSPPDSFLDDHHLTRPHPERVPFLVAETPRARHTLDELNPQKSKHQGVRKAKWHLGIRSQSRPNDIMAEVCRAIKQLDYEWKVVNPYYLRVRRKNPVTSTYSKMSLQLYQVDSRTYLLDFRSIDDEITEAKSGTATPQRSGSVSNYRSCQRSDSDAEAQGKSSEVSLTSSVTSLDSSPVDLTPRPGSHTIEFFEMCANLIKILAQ
Sequence of Dual specificity protein kinase CLK4 (Q9HAZ1 whole entry, the tested form may be a part): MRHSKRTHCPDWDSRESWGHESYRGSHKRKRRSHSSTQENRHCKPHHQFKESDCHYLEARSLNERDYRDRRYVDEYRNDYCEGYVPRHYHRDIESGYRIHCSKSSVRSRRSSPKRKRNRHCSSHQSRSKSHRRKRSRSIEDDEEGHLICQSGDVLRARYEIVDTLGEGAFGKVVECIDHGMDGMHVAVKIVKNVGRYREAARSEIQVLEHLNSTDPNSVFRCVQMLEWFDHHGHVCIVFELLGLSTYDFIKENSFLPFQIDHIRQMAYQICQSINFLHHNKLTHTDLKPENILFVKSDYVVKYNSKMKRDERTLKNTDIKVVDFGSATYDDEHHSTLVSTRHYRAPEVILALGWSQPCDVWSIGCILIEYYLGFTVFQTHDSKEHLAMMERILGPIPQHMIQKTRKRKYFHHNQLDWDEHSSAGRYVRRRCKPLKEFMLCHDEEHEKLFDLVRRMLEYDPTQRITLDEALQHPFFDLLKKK
Sequence of Serine/threonine-protein kinase pim-1 (P11309 whole entry): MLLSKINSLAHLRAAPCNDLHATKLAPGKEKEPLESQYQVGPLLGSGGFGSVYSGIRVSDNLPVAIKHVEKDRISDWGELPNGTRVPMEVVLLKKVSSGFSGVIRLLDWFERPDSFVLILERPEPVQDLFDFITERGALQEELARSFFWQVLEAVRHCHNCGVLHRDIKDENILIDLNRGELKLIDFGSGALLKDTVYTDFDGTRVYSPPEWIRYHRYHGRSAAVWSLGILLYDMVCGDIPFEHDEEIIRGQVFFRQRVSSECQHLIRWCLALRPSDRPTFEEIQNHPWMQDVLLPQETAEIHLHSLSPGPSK
Sequence of Cyclin-dependent kinase 9 (P50750 whole entry): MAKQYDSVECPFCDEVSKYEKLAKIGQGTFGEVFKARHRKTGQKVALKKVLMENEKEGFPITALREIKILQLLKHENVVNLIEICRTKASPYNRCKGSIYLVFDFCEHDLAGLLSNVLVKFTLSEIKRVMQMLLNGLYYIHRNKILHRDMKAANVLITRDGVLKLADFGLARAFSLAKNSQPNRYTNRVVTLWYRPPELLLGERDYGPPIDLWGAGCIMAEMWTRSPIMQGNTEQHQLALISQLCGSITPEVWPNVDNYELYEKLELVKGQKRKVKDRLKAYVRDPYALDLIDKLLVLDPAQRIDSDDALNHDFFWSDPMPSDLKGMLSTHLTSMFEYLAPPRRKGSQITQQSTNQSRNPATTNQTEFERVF

Turning to `COc1ccccc1CNC(=N)Nc1nccc(-c2cccs2)n1`, the Ki in experiment [1] was > 6.31 µM (inactive); in experiment [2] it was > 3.16 µM (inactive); in experiment [3] it was 0.316 µM (active); at LIM domain kinase 1, > 3.16 µM (inactive); in [4], > 3.98 µM (inactive); in [5], > 5.01 µM (inactive). Moreover, the Ki in [6] is > 3.98 µM (inactive); in [7] it was 0.126 µM (active); in experiment [8] it was > 3.16 µM (inactive); in experiment [9], > 3.16 µM (inactive); in experiment [10], > 3.98 µM (inactive); in experiment [11] it was > 2.51 µM (inactive). Further, the Ki was > 3.98 µM (inactive) in [12]; > 5.01 µM (inactive) in experiment [13]; > 2.51 µM (inactive) in experiment [14]; > 3.98 µM (inactive) at Activated CDC42 kinase 1; > 6.31 µM (inactive) in [15]; > 3.16 µM (inactive) in [16]. The Ki in experiment [17] was > 3.16 µM (inactive); in experiment [18], > 3.98 µM (inactive); in experiment [19], > 3.16 µM (inactive); in experiment [20] it was 2.51 µM (active); in experiment [21], > 3.16 µM (inactive); in experiment [22] it was > 3.98 µM (inactive). Moreover, the Ki in experiment [23] was > 5.01 µM (inactive); in experiment [24], > 2.51 µM (inactive); in experiment [25], > 3.98 µM (inactive); in experiment [26], > 3.16 µM (inactive); in experiment [27], > 3.98 µM (inactive); in experiment [28] it was > 6.31 µM (inactive). In addition, the Ki on Activin receptor type-1 was > 3.98 µM (inactive); in experiment [29] it was > 2.51 µM (inactive); in experiment [30], > 1.26 µM (inactive); in experiment [31], > 2.51 µM (inactive); in [32] it was > 2.51 µM (inactive); in [33], > 3.98 µM (inactive). In addition, the Ki in experiment [34] was > 2.51 µM (inactive); in experiment [35] it was > 2.51 µM (inactive); in [36], 3.16 µM (active); in experiment [37] it was > 3.16 µM (inactive); in [38] it was > 3.98 µM (inactive); in [39], > 2.51 µM (inactive). The Ki in experiment [40] is > 3.98 µM (inactive); on Aurora kinase B, > 3.98 µM (inactive); in experiment [41], > 2.51 µM (inactive); in [42] it was 1.58 µM (active); in [43] it was > 3.98 µM (inactive); in experiment [44] it was > 2.51 µM (inactive). Also, the Ki in [45] is > 3.98 µM (inactive); in experiment [46] it was 1.26 µM (active); in [47], > 5.01 µM (inactive); in experiment [48], > 3.98 µM (inactive); in experiment [49], > 5.01 µM (inactive); in [50] it was 0.398 µM (active). The Ki in [51] was 0.1 µM (active); at Aurora kinase A, > 1.58 µM (inactive); in experiment [52] it was > 3.98 µM (inactive); in [53], > 3.16 µM (inactive); in experiment [54], 5.01 µM (active).
On to `COc1ccc([S+]([O-])c2c(Cl)cnn(Cc3cccc4ccccc34)c2=O)cc1` (configuration not stated), for which the IC50 is 5.86 µM (active) in [55] and 6.18 µM (active) in [56].
`O=C(/C=C/c1ccccc1[N+](=O)[O-])NCCc1ccc(F)cc1`: the EC50 in [57] is 25.8 µM (active).
